# Patent US5087704A, “Cyanine compounds” (Asahi Chemical Co., Ltd., priority 1988, dated 1992)
# Legend:
# [1] = Wavelength at maximum absorption and molar absorptivity of the cyanine compounds; format: physicochemical
# Solubility in solvent = format: physicochemical; conditions: diacetone alcohol, room temperature
# Procedure: Each of cyanine dyes as shown below in Table 2 was dissolved in diacetone alcohol and the solubility was measured at room temperature.
wavelength at maximum absorption (λmax) ([1]; solvent not given),Solubility (g/l) (Solubility in solvent),molar absorptivity (ε) [1],wavelength at maximum absorption (λmax) ([1]; methanol),wavelength at maximum absorption (λmax) ([1]; diacetone alcohol),Solubility (Solubility in solvent),SMILES
768 nm,,,,,,COCCN1C(=CC=CC=CC=CC2=[N+](CCOC)c3cc4c(cc3C2(C)C)CCC4)C(C)(C)c2cc3c(cc21)CCC3 [Preparation Example 9]
,At least 30 g/l,176000 L/mol/cm,696 nm,,,CCCCN1C(=CC=CC=CC2=[N+](CCCC)c3cc4c(cc3C2(C)C)OCO4)C(C)(C)c2cc3c(cc21)OCO3 [Preparation Example 1]
,At least 30 g/l,190000 L/mol/cm,,688 nm,,CCCCN1C(=CC=CC=CC2=[N+](CCCC)c3cc4c(cc3C2(C)C)CC(C)O4)C(C)(C)c2cc3c(cc21)OC(C)C3 (centres unmarked) [Preparation Example 5]
,,220000 L/mol/cm,,672 nm,30 mg/mL,CCOCCN1C(=CC=CC=CC2=[N+](CCOCC)c3cc4c(cc3C2(C)C)CCC4)C(C)(C)c2cc3c(cc21)CCC3 [Preparation Example 7]
,At least 30 g/l,,,695 nm,,CC1(C)C(=CC=CC=CC2=[N+](CCO)c3cc4c(cc3C2(C)C)OCO4)N(CCO)c2cc3c(cc21)OCO3 [Preparation Example 10]
,,160000 L/mol/cm,790 nm,,,CC1(C)C(=CC=CC=CC=CC2=[N+](CCS(=O)(=O)O)c3cc4c(cc3C2(C)C)OCO4)N(CCS(=O)(=O)O)c2cc3c(cc21)OCO3 [Preparation Example 11]
,At least 30 g/l,194000 L/mol/cm,,695 nm,,CCCCN1C(=CC=CC=CC2=[N+](CCCC)c3cc4c(cc3C2(C)C)OC(C)C4)C(C)(C)c2cc3c(cc21)CC(C)O3 (centres unmarked) [Preparation Example 4]
768 nm,,228000 L/mol/cm,,,,CC(=O)OCCN1C(=CC=CC=CC=CC2=[N+](CCOC(C)=O)c3cc4c(cc3C2(C)C)CCC4)C(C)(C)c2cc3c(cc21)CCC3 [Preparation Example 8]
,,,694 nm,,30 mg/mL,CCN1C(=CC=CC=CC2=[N+](CC)c3cc4c(cc3C2(C)C)OCO4)C(C)(C)c2cc3c(cc21)OCO3 [Preparation Example 2]
,,,793 nm,,,COCCN1C(=CC=CC=CC=CC2=[N+](CCOC)c3cc4c(cc3C2(C)C)OCO4)C(C)(C)c2cc3c(cc21)OCO3 [Preparation Example 3]
,,224000 L/mol/cm,,670 nm,,CCCCN1C(=CC=CC=CC2=[N+](CCCC)c3cc4c(cc3C2(C)C)CCC4)C(C)(C)c2cc3c(cc21)CCC3 [Preparation Example 6]
,,193000 L/mol/cm,795 nm,,,CCCCN1C(=CC=CC=CC=CC2=[N+](CCCC)c3cc4c(cc3C2(C)C)OC(C)C4)C(C)(C)c2cc3c(cc21)CC(C)O3 (centres unmarked) [Preparation Example 12]
